Tests used:
[1] = target: T1, HiBit-KRAS^G12C (Homo sapiens, UniProt P01116, G12C); test: HiBit degradation assay in SW1573 HiBit-KRas^G12C cells; assay type: cell-based; parameters: expressed in transfected cells; host or cells: SW1573 (clone E6), modified pcDNA3.1 vector, TK promoter; conditions: 24 hours
Summary of the method: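 SW1573 cells stably expressing N-terminally HiBit-tagged KRAS G12C, under the TK promoter, were treated 24 h at 37 °C with 10 μM to 20 nM compound in 0.1% or 0.5% DMSO. Residual HiBit luminescence normalised to DMSO and fitted with a 4-parameter model for DC50 and Dmax. Points with ≥50% viability loss (alamar blue) excluded.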

[2] = target: T1, HiBit-KRAS^G12C; test: HiBit degradation assay in MiaPaCa-2 HiBit-KRas^G12C cells; assay type: cell-based; conditions: 24 hours; for KRas^G12C-HiBiT (MiaPaCa; 0.5% DMSO) DMax / Dmax: maximum degradation
Summary of the method: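 MiaPaCa-2 cells with CRISPR N-terminal HiBit knock-in on one endogenous KRAS^G12C allele, treated 24 hours at 37° C with compound titrated 10 μM to 20 nM (0.1% or 0.5% DMSO). Lytic HiBit luminescence normalized to DMSO, 4-parameter fit giving DC50 and Dmax; points cytotoxic to […] cells by alamar blue excluded.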

[3] = SW1573, SW1573 HiBit-KRas^G12C, 0.5% DMSO, read-out: KRas^G12C-HiBiT (SW1573; 0.5% DMSO) Dmax**
[4] = read-out: KRas^G12C-HiBiT (SW1573; 0.5% DMSO) IC50***, SW1573 HiBit-KRas^G12C, 0.5% DMSO
[5] = MiaPaCa-2 HiBit-KRas^G12C cells, 0.5% DMSO
[6] = read-out: KRas^G12C-HiBiT (MiaPaCa; 0.5% DMSO) IC50, MiaPaCa-2 HiBit-KRas^G12C cells, 0.5% DMSO
[7] = MIA PaCa-2, MiaPaCa-2 HiBit-KRas^G12C cells, 0.5% DMSO, read-out: KRas^G12C-HiBiT (MiaPaCa; 0.5% DMSO) DMax
[8] = SW1573, SW1573 HiBit-KRas^G12C, 0.1% DMSO, read-out: KRas^G12C-HiBit (SW1573; 0.1% DMSO) Dmax**
[9] = SW1573 HiBit-KRas^G12C, 0.1% DMSO, read-out: KRas^G12C-HIBit (SW1573; 0.1% DMSO) DC50*
[10] = read-out: KRas^G12C-HiBiT (MiaPaCa; 0.1% DMSO) IC50, MiaPaCa-2 HiBit-KRas^G12C cells, 0.1% DMSO
[11] = SW1573, read-out: KRas^G12C-HiBit (SW1573; 0.1% DMSO) Dmax**, SW1573 HiBit-KRas^G12C, 0.1% DMSO

T1 sequence (P01116 1-186 isoform P01116-2 G12C limits assumed): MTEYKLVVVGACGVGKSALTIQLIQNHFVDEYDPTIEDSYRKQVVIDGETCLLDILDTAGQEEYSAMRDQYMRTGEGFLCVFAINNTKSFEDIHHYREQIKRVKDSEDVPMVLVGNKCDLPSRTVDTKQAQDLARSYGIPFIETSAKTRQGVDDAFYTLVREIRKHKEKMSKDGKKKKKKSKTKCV

Row | Structure (SMILES) | Dmax [1, 3] [%] | DC50 [1, 4] [µM] | DC50 [2, 6] [µM] | DC50 [1, 9] [µM] | DC50 [2, 10] [µM] | further results
1 | C=CC(=O)N1CCN(c2nc(OCCN3CCC(COc4cc([C@H](C(=O)N5C[C@H](O)C[C@H]5C(=O)N[C@@H](C)c5ccc(-c6scnc6C)cc5)C(C)C)on4)CC3)nc3c(F)c(-c4cc(O)cc5ccccc45)c(Cl)cc23)CC1 (atropisomer, axis not shown) [Compound 147, (2S,4R)-1-[(2R)-2-(3-{[1-(2-{[6-chloro-8-fluoro-7-(3-hydroxynaphthalen-1-yl)-4-[4-(prop-2-enoyl)piperazin-1-yl]quinazolin-2-yl]oxy}ethyl)piperidin-4-yl]methoxy}-1,2-oxazol-5-yl)-3-methylbutanoyl]-4-hydroxy-N-[(1S)-1-[4-(4-methyl-1,3-thiazol-5-yl)phenyl]ethyl]pyrrolidine-2-carboxamide] | > 70 | 0.1 to 1 | 0.1 to 1 |  |  | KRas^G12C-HiBiT (MiaPaCa; 0.5% DMSO) DMax [2, 5]: B (35 < B < 70)
2 | C=CC(=O)N1CCN(c2nc(OCCN3CCC(COc4cc([C@H](C(=O)N5C[C@H](O)C[C@H]5C(=O)N[C@@H](C)c5ccc(-c6scnc6C)cc5)C(C)C)on4)CC3)nc3c(F)c(-c4cc(O)cc5ccccc45)c(Cl)cc23)C[C@@H]1CC#N [Compound 169, (2S,4R)-1-[(2R)-2-[3-({1-[2-({6-chloro-4-[(3S)-3-(cyanomethyl)-4-(prop-2-enoyl)piperazin-1-yl]-8-fluoro-7-(3-hydroxynaphthalen-1-yl)quinazolin-2-yl}oxy)ethyl]piperidin-4-yl}methoxy)-1,2-oxazol-5-yl]-3-methylbutanoyl]-4-hydroxy-N-[(1S)-1-[4-(4-methyl-1,3-thiazol-5-yl)phenyl]ethyl]pyrrolidine-2-carboxamide] |  | < 0.1 | 0.1 to 1 |  |  | KRas^G12C-HiBiT (SW1573; 0.5% DMSO) Dmax** ([1]; SW1573 HiBit-KRas^G12C, 0.5% DMSO): A (A ≥ 70); KRas^G12C-HiBiT (MiaPaCa; 0.5% DMSO) DMax [2, 5]: A (A ≥ 70)
3 | C=CC(=O)N1CCN(c2nc(O[C@@H]3CCC[C@H]3N3CCC(COCC(=O)N[C@H](C(=O)N4C[C@H](O)C[C@H]4C(=O)N[C@@H](C)c4ccc(-c5scnc5C)cc4)C(C)(C)C)CC3)nc3c(F)c(-c4cc(O)cc5ccccc45)c(Cl)cc23)C[C@@H]1CC#N [Compound 130, (2S,4R)-1-[(2S)-2-[2-({1-[(1R,2R)-2-({6-chloro-4-[(3S)-3-(cyanomethyl)-4-(prop-2-enoyl)piperazin-1-yl]-8-fluoro-7-(3-hydroxynaphthalen-1-yl)quinazolin-2-yl}oxy)cyclopentyl]piperidin-4-yl}methoxy)acetamido]-3,3-dimethylbutanoyl]-4-hydroxy-N-[(1S)-1-[4-(4-methyl-1,3-thiazol-5-yl)phenyl]ethyl]pyrrolidine-2-carboxamide] | > 70 | 0.1 to 1 | 0.1 to 1 |  |  | Dmax [2, 7]: 35 to 70%
4 | C=CC(=O)N1CCN(c2nc(O[C@H](C)CN3CCC(OCCOCC(=O)N[C@H](C(=O)N4C[C@H](O)C[C@H]4C(=O)N[C@@H](C)c4ccc(-c5scnc5C)cc4)C(C)(C)C)CC3)nc3c(F)c(-c4cc(O)cc5ccccc45)c(Cl)cc23)C[C@H]1C [Compound 45, (2S,4R)-1-[(2S)-2-{2-[2-({1-[(2R)-2-{[6-chloro-8-fluoro-7-(3-hydroxynaphthalen-1-yl)-4-[(3R)-3-methyl-4-(prop-2-enoyl)piperazin-1-yl]quinazolin-2-yl]oxy}propyl]piperidin-4-yl}oxy)ethoxy]acetamido}-3,3-dimethylbutanoyl]-4-hydroxy-N-[(1S)-1-[4-(4-methyl-1,3-thiazol-5-yl)phenyl]ethyl]pyrrolidine-2-carboxamide] |  |  |  | 0.1 to 1 | > 1 | Dmax [1, 8]: < 35%
5 | C=CC(=O)N1CCN(c2nc(O[C@H](C)CN3CCC(CCC(=O)N[C@H](C(=O)N4C[C@H](O)C[C@H]4C(=O)N[C@@H](C)c4ccc(-c5scnc5C)cc4)C(C)(C)C)CC3)nc3c(F)c(-c4cc(O)cc5ccccc45)c(Cl)cc23)CC1 [Compound 37, (2S,4R)-1-[(2S)-2-(3-{1-[(2R)-2-{[6-chloro-8-fluoro-7-(3-hydroxynaphthalen-1-yl)-4-[4-(prop-2-enoyl)piperazin-1-yl]quinazolin-2-yl]oxy}propyl]piperidin-4-yl}propanamido)-3,3-dimethylbutanoyl]-4-hydroxy-N-[(1S)-1-[4-(4-methyl-1,3-thiazol-5-yl)phenyl]ethyl]pyrrolidine-2-carboxamide] |  |  |  | 0.1 to 1 |  | Dmax [1, 8]: 35 to 70%; Dmax ([2]; MIA PaCa-2, MiaPaCa-2 HiBit-KRas^G12C cells, 0.1% DMSO, read-out: KRas^G12C-HiBiT (MiaPaCa; 0.1% DMSO) DMax): < 35%
6 | C=CC(=O)N1CCN(c2nc(O[C@H](C)CN3CCN(C4CN(CC(=O)N[C@H](C(=O)N5C[C@H](O)C[C@H]5C(=O)N[C@@H](C)c5ccc(-c6scnc6C)cc5)C(C)(C)C)C4)CC3)nc3c(F)c(-c4cc(O)cc5ccccc45)c(Cl)cc23)CC1 [Compound 40, (2S,4R)-1-[(2S)-2-[2-(3-{4-[(2R)-2-{[6-chloro-8-fluoro-7-(3-hydroxynaphthalen-1-yl)-4-[4-(prop-2-enoyl)piperazin-1-yl]quinazolin-2-yl]oxy}propyl]piperazin-1-yl}azetidin-1-yl)acetamido]-3,3-dimethylbutanoyl]-4-hydroxy-N-[(1S)-1-[4-(4-methyl-1,3-thiazol-5-yl)phenyl]ethyl]pyrrolidine-2-carboxamide] |  |  |  | > 1 | 0.1 to 1 | Dmax ([1]; SW1573, read-out: KRas^G12C-HiBiT (SW1573; 0.5% DMSO) Dmax**, SW1573 HiBit-KRas^G12C, 0.5% DMSO): 35 to 70%; Dmax [1, 11]: 35 to 70%; Dmax ([2]; MIA PaCa-2, read-out: KRas^G12C-HiBiT (MiaPaCa; 0.1% DMSO) DMax, MiaPaCa-2 HiBit-KRas^G12C cells, 0.1% DMSO): < 35%; Dmax ([2]; MIA PaCa-2, read-out: KRas^G12C-HiBiT (MiaPaCa; 0.5% DMSO) DMax, MiaPaCa-2 HiBit-KRas^G12C cells, 0.5% DMSO): < 35%
7 | C=CC(=O)N1CCN(c2nc(OCCN3CCC(C)(COc4cc([C@H](C(=O)N5C[C@H](O)C[C@H]5C(=O)N[C@@H](C)c5ccc(-c6scnc6C)cc5)C(C)C)on4)CC3)nc3c(F)c(-c4cc(O)cc5ccccc45)c(Cl)cc23)C[C@@H]1CC#N [Compound 131, (2S,4R)-1-[(2R)-2-[3-({1-[2-({6-chloro-4-[(3S)-3-(cyanomethyl)-4-(prop-2-enoyl)piperazin-1-yl]-8-fluoro-7-(3-hydroxynaphthalen-1-yl)quinazolin-2-yl}oxy)ethyl]-4-methylpiperidin-4-yl}methoxy)-1,2-oxazol-5-yl]-3-methylbutanoyl]-4-hydroxy-N-[(1S)-1-[4-(4-methyl-1,3-thiazol-5-yl)phenyl]ethyl]pyrrolidine-2-carboxamide] | > 70 | < 0.1 | 0.1 to 1 |  |  | Dmax [2, 7]: > 70%
8 | C=CC(=O)N1CCN(c2nc(OCCN3CCC4(CC3)CN(c3cc([C@@H](C(=O)N5C[C@H](O)C[C@H]5C(=O)N[C@@H](C)c5ccc(-c6scnc6C)cc5)C(C)C)on3)C4)nc3c(F)c(-c4cc(O)cc5ccccc45)c(Cl)cc23)C[C@@H]1CC#N [Compound 137, (2S,4R)-1-[(2S)-2-(3-{7-[2-({6-chloro-4-[(3S)-3-(cyanomethyl)-4-(prop-2-enoyl)piperazin-1-yl]-8-fluoro-7-(3-hydroxynaphthalen-1-yl)quinazolin-2-yl}oxy)ethyl]-2,7-diazaspiro[3.5]nonan-2-yl}-1,2-oxazol-5-yl)-3-methylbutanoyl]-4-hydroxy-N-[(1S)-1-[4-(4-methyl-1,3-thiazol-5-yl)phenyl]ethyl]pyrrolidine-2-carboxamide] | < 35 | 0.1 to 1 | > 1 |  |  | 
9 | C=CC(=O)N1CCN(c2nc(O[C@H](C)CN3CCN(CCCN4CCN(CC(=O)N[C@H](C(=O)N5C[C@H](O)C[C@H]5C(=O)N[C@@H](C)c5ccc(-c6scnc6C)cc5)C(C)(C)C)CC4)CC3)nc3c(F)c(-c4cc(O)cc5ccccc45)c(Cl)cc23)CC1 [Compound 49, (2S,4R)-1-[(2S)-2-{2-[4-(3-{4-[(2R)-2-{[6-chloro-8-fluoro-7-(3-hydroxynaphthalen-1-yl)-4-[4-(prop-2-enoyl)piperazin-1-yl]quinazolin-2-yl]oxy}propyl]piperazin-1-yl}propyl)piperazin-1-yl]acetamido}-3,3-dimethylbutanoyl]-4-hydroxy-N-[(1S)-1-[4-(4-methyl-1,3-thiazol-5-yl)phenyl]ethyl]pyrrolidine-2-carboxamide] |  |  |  | 0.1 to 1 | > 1 | Dmax [1, 11]: < 35%

Reference: patent publication US20220370416A1, “COMPOUNDS AND METHODS FOR TARGETED DEGRADATION OF KRAS” (Arvinas Operations, Inc., priority 2020, published 2022)
